Results from the SangsterLogP compilation.

## CC(C)(C)COC(N)=O
  logP: 0.94

## C1CCCC1
  logP: 3

## CCc1ccccc1O
  logP: 2.47

## N=c1ccn(O)c2ccccc12
  logP: 0.05

## NC(=O)c1ccc(Br)cc1
  logP: 1.76

## Cc1cccc(O)c1
  logP: 1.96

## O=c1ccn([C@H]2CC[C@@H](CO)O2)c(=O)[nH]1
  logP: -1

## FC(F)(F)c1nc2cc(Cl)c(Cl)cc2[nH]1
  logP: 3.49

## NCCc1ccccc1
  logP: 1.41

## CCCCNC(=O)NCCCC
  logP: 1.4

## CC(C)NC(=O)C=Cc1ccc([N+](=O)[O-])o1
  logP: 1.34

## O=NN1CCCCC1
  logP: 0.36

## O=C1CCCO1
  logP: -0.64

## CCC(=O)c1cccc(OC(=O)NC)c1
  logP: 1.49

## C(=C\c1ccccc1)/c1ccccc1
  logP: 4.81

## C=CC
  logP: 1.77

## COc1cc(C(=O)NN)ccn1
  logP: -0.1

## CC1(C)SC2C(NC(=O)C(O)c3ccccc3)C(=O)N2C1C(=O)O (configuration not stated)
  logP: 1.4

## NC(=O)/C=C/c1ccccc1
  logP: 1.43

## Cc1ccc(N=C=S)cc1
  logP: 3.92

## CCc1cccc(OCC(=O)O)c1
  logP: 2.25

## Nc1ccn(C2C=CC(CO)O2)c(=O)n1 (configuration not stated)
  logP: -1.55

## CN
  logP: -0.57

## CCN(CC)CCOC(=O)c1ccc(N)cc1
  logP: 2.14

## Cc1cc2ccccc2[nH]1
  logP: 2.53

## Nc1cc(N2CCCCC2)nc(N)[n+]1[O-]
  logP: 1.24

## Nc1ccccc1C(=O)O
  logP: 1.21

## OCc1ccccc1O
  logP: 0.73

## OCc1ccc(Cl)cc1
  logP: 1.96

## CC(=O)N(C)c1ccccc1
  logP: 1.12

## NCCCCc1ccccc1
  logP: 2.4

## COc1cc(CCN)cc(OC)c1OC
  logP: 0.78

## Oc1ccc(-c2ccccc2)cc1
  logP: 3.2

## Clc1cccc2cccnc12
  logP: 2.44

## Oc1ccccc1O
  logP: 0.88

## O=C(O)COc1ccccc1Br
  logP: 2.04

## OCc1ccncc1
  logP: 0.06

## O=[N+]([O-])c1cccc2c1ccc[n+]2[O-]
  logP: 0.49

## CC(=O)C(C#N)=NNc1ccc(Cl)cc1
  logP: 4.1

## CCOC(=O)c1ccccn1
  logP: 0.87

## CCCCc1ccc(S(N)(=O)=O)cc1
  logP: 2.45

## CCCOC(=O)c1ccc(S(N)(=O)=O)cc1
  logP: 1.75

## Cc1c[nH]c2ccccc12
  logP: 2.6

## COc1cccc(N)c1
  logP: 0.93

## CC(=O)C(C#N)=NNc1ccc(SC(F)(F)F)cc1
  logP: 5.04

## CC=Cc1ccccc1
  logP: 3.35

## CCS(=O)(=O)CCn1c([N+](=O)[O-])cnc1C
  logP: -0.35

## c1ccc2c(c1)ccc1c3ccccc3ccc21
  logP: 5.81

## Nc1ccn([C@H]2C[C@H](O)[C@@H](CO)O2)c(=O)n1
  logP: -1.77

## N#Cc1ccc(C(=O)O)cc1
  logP: 1.56

## NC(CCCc1ccccc1)C(=O)O (configuration not stated)
  logP: -0.36

## OCCN1CCN(CC/C=C2\c3ccccc3Sc3ccc(C(F)(F)F)cc32)CC1
  logP: 4.51

## CCCCCOC(N)=O
  logP: 1.35

## Nc1cccnc1
  logP: 0.11

## c1ccc(Cc2ccccc2)cc1
  logP: 4.14

## OCCBr
  logP: 0.23

## O=C(O)COc1ccccc1
  logP: 1.34

## COC(=O)C(C#N)=NNc1cc(Cl)c(Cl)c(Cl)c1
  logP: 5.22

## CC(=O)C(C#N)=NNc1ccc(Cl)c(Cl)c1
  logP: 4.56

## N#Cc1cccc([N+](=O)[O-])c1
  logP: 1.17

## C1CN2CCC1CC2
  logP: 1.38

## Cc1cc(C(=O)NN)ccn1
  logP: -0.37

## Nc1nc(N)c2ncn([C@H]3C[C@H](F)[C@@H](CO)O3)c2n1
  logP: 0.05

## O=S(=O)(c1ccccc1)c1ccccc1
  logP: 2.4

## c1ccc2[nH]ccc2c1
  logP: 2.14

## OC[C@H]1O[C@@H](n2cnc3c(O)ncnc32)[C@H](O)[C@@H]1O
  logP: -2.1

## O=C(O)Cc1ccc(F)cc1
  logP: 1.55

## NS(=O)(=O)c1ccccc1[N+](=O)[O-]
  logP: 0.34

## COC1C(Cl)C(Cl)C(Cl)C(Cl)C1OC (configuration not stated)
  logP: 2.82

## O=C(O)c1ccccc1Nc1ccccc1
  logP: 4.36

## COP(=O)(OC)OC=C(Cl)Cl
  logP: 1.47

## Nc1ccc(C(=O)O)c([N+](=O)[O-])c1
  logP: 0.38

## OC(c1ccccc1)C1CC1 (configuration not stated)
  logP: 1.95

## CC1=CC(=O)c2ccccc2C1=O
  logP: 2.2

## CCCCCC(C)=O
  logP: 1.98

## O=C(Nc1ccccc1)c1ccccc1O
  logP: 3.27

## O=C(O)c1cccc2ccccc12
  logP: 3.1

## CC(C)(C)NCC(O)COc1nsnc1N1CCOCC1 (configuration not stated)
  logP: 1.83

## CC(C)(C)[N+](=O)[O-]
  logP: 1.17

## C[C@]12CCC(=O)C=C1CC[C@@H]1[C@@H]2[C@@H](O)C[C@]2(C=O)[C@@H](C(=O)CO)CC[C@@H]12
  logP: 1.08

## Nc1ncnc2c1ncn2[C@@H]1O[C@H](CO)[C@@H](O)[C@H]1O
  logP: -1.05

## Nc1ncnc2c1ncn2[C@H]1C[C@H](F)[C@@H](CO)O1
  logP: 0.08

## CC#N
  logP: -0.34

## c1ccc2c(c1)Cc1ccccc1-2
  logP: 4.18

## Nc1cccc2ncccc12
  logP: 1.16

## CN(C)CC/C=C1\c2ccccc2Sc2ccc(Cl)cc21
  logP: 5.18

## Cc1ccc2cccc(C)c2c1
  logP: 4.44

## CC(C)[C@H](N)C(=O)O
  logP: -2.26

## O=C(O)COc1ccc(F)cc1
  logP: 1.64

## NC(=O)Cc1ccccn1
  logP: -0.65

## c1ccc2c(c1)CCC2
  logP: 3.18

## c1ccc2c(c1)Nc1ccccc1S2
  logP: 4.15

## O=[N+]([O-])/C=C/c1cccc(O)c1
  logP: 2.07

## CSc1ccc2c(c1)N(CCC1CCCCN1C)c1ccccc1S2 (configuration not stated)
  logP: 5.9

## c1ccc(-c2ccccc2)cc1
  logP: 3.98

## CN(C)C(=O)COc1ccccc1
  logP: 0.8

## NC(=O)c1cc([N+](=O)[O-])cc([N+](=O)[O-])c1
  logP: 0.83

## O=S(c1ccccc1)c1ccccc1
  logP: 2.06

## CCCCNc1ccc(C(=O)OCCN(C)C)cc1
  logP: 3.51

## Cc1ccc(Cl)cc1
  logP: 3.33

## Fc1ccccc1F
  logP: 2.37

## CCC(Cc1ccccn1)C(N)=O (configuration not stated)
  logP: -0.01

## Nc1cccc(Cl)c1Cl
  logP: 2.82

## CSCC[C@H](N)C(=O)O
  logP: -1.87

## COc1cc(CCN)cc(OC)c1Br
  logP: 2.03

## c1ccnnc1
  logP: -0.72

## CC(=O)c1ccc(C)cc1
  logP: 2.1

## CNc1ccccc1
  logP: 1.66

## CCCCCCCC(C)=O
  logP: 3.14

## O=C(NC(CO)C(O)c1ccc([N+](=O)[O-])cc1)C(Br)(Br)Br (configuration not stated)
  logP: 2.17

## [O-][n+]1cccc2ccccc21
  logP: 0.36

## Cc1cccc(OCC(=O)O)c1
  logP: 1.78

## ClC=C(Cl)Cl
  logP: 2.42

## c1ccsc1
  logP: 1.81

## O=C(O)COc1ccccc1[N+](=O)[O-]
  logP: 1.13

## CCc1ccc(OC(=O)NC)cc1
  logP: 2.23

## O=C(O)Cc1ccc(I)cc1
  logP: 2.64

## O=C(O)COc1ccc(Cl)cc1
  logP: 2.25

## O=[N+]([O-])c1ccccc1O
  logP: 1.79

## O=C(O)c1cc([N+](=O)[O-])ccc1O
  logP: 2.34

## Cc1ccc(C(C)C)cc1
  logP: 4.1

## Oc1ccccn1
  logP: -0.58

## c1cn[nH]c1
  logP: 0.26

## O=C1NC(=O)C(c2ccccc2)(c2ccccc2)N1
  logP: 2.47

## CCCC(CO)n1cnc2c(N)ncnc21 (configuration not stated)
  logP: 0.66

## CN(C)CCC(c1ccc(Cl)cc1)c1ccccn1 (configuration not stated)
  logP: 3.38

## Nc1ncnc2c1ncn2[C@H]1C[C@H](O)[C@@H](CO)O1
  logP: -0.55

## C1CO1
  logP: -0.3

## CCc1cccc(OC(=O)NC)c1
  logP: 2.2

## c1ccc(N2CCCCC2)cc1
  logP: 2.98

## CNC(=O)Oc1ccc(I)cc1
  logP: 2.46

## CN(C)C(=O)Nc1cccc(Cl)c1
  logP: 2

## Cc1ccc(C)c2c(C)cccc12
  logP: 4.9

## Oc1cc(Cl)c(Cl)cc1Cl
  logP: 3.72

## C1CCOC1
  logP: 0.46

## Cc1ccccc1S(N)(=O)=O
  logP: 0.84

## Nc1ccccc1
  logP: 0.9

## CCC1(CCC(C)C)C(=O)NC(=O)NC1=O
  logP: 2.07

## C=CCNCC=C
  logP: 1.11

## CC[C@H](C)[C@H](N)C(=O)O
  logP: -1.7

## CNC(=O)Oc1cccc(I)c1
  logP: 2.52

## CCCCOc1ccc(CC(=O)NO)cc1
  logP: 2.08

## Clc1nc2c(Cl)c(Cl)c(Cl)c(Cl)c2[nH]1
  logP: 4.53

## COc1cccc(CC(C)N)c1OC (configuration not stated)
  logP: 1.49

## O=NN(CCCl)C(=O)NC1CCCCC1
  logP: 2.83

## CCc1ccc(S(N)(=O)=O)cc1
  logP: 1.31

## Cc1ccccc1N
  logP: 1.32

## O/N=C/c1ccccc1
  logP: 1.75

## O=C(O)c1ccccc1Nc1cccc(C(F)(F)F)c1
  logP: 5.25

## CC(=O)C(C#N)=NNc1cc(Cl)cc(Cl)c1
  logP: 4.68

## CC(C)(S)[C@@H](N)C(=O)O
  logP: -1.78

## O=[N+]([O-])c1cccc2ccc[n+]([O-])c12
  logP: 0.04

## COC(=O)C(C#N)=NNc1ccccc1
  logP: 2.59

## Oc1ncnc2[nH]ncc12
  logP: -0.55

## N#Cc1ccc(S(N)(=O)=O)cc1
  logP: 0.23

## CC(C)CO
  logP: 0.76

## CC(C)NCC(O)c1ccc(NS(C)(=O)=O)cc1 (configuration not stated)
  logP: 0.24

## CCOc1ccc(O)cc1
  logP: 1.81

## O=C1CN(/N=C/c2ccc([N+](=O)[O-])o2)C(=O)N1
  logP: -0.47

## CCN
  logP: -0.13

## CN1C(=O)C(=O)c2ccccc21
  logP: 0.58

## NC(=O)CCCn1nnc2ccccc21
  logP: 0.37

## CCCCOCCO
  logP: 0.83

## NC(=O)c1ccc(N)nc1
  logP: 0.7

## N#Cc1ccc(O)cc1
  logP: 1.6

## CCCC(C)=O
  logP: 0.91

## CC(=O)c1ccc(O)cc1
  logP: 1.35

## NCC(F)(F)F
  logP: 0.24

## CCOc1ccc(OC(=O)NC)cc1
  logP: 1.63

## O=[N+]([O-])c1ccc2c(ccc[n+]2[O-])c1
  logP: 0.39

## Oc1cccc(C(F)(F)F)c1
  logP: 2.95

## O=C(O)c1cc(I)cc(I)c1O
  logP: 4.56

## NCc1cccnc1
  logP: -0.32

## CCCN(CCC)N=O
  logP: 1.36

## Cn1c(CO)cnc1[N+](=O)[O-]
  logP: -0.03

## CC(C)=O
  logP: -0.24

## NNc1ccccc1
  logP: 1.25

## O=[N+]([O-])c1cc(Br)c(O)c(Br)c1
  logP: 3.57

## COC(=O)C(C#N)=NNc1cc(Cl)c(Cl)cc1Cl
  logP: 5.15

## COC(=O)C(C#N)=NNc1cc(C(F)(F)F)ccc1Cl
  logP: 4.42

## O=C1C=C(Cl)C(=O)c2ccccc21
  logP: 2.29

## Oc1ccc(Cl)cc1Cl
  logP: 3.06
